26 compounds from patent US11420958B2, “Aryl and heteroaryl substituted indole compounds” (BRISTOL-MYERS SQUIBB COMPANY, priority 2017, dated 2022) can be followed below.

What all share (type): cell-based
One assay has as its target human TLR7 (Homo sapiens (Human), UniProt Q9NYK1). Kind of assay: TLR7 inhibition reporter assay (HEK-Blue, SEAP). The following applies: HEK-Blue cells overexpressing human TLR7, gardiquimod 7.5 μM stimulation. An outline of the steps:
(§1)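 Reporter cells, NF-κB/AP-1-driven SEAP; cmpd 0.05 nM–50 μM final, 30 min RT pre-treat; stim gardiquimod 7.5 μM (TLR7), R848 15.9 μM (TLR8), ODN2006 5 nM (TLR9); 22 h 37 °C; % inhibition of SEAP signal.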

Another assay addresses human TLR8 (Homo sapiens (Human), UniProt Q9NR97). Kind of assay: TLR8 inhibition reporter assay (HEK-Blue, SEAP). The note with it: HEK-Blue cells overexpressing human TLR8, R848 15.9 μM stimulation. An outline of the steps:
as §1
A general note: A reporter such as luciferase makes a cellular process visible.

The next assay addresses human TLR9 (Homo sapiens (Human), UniProt Q9NR96). The assay can be described thus: TLR9 inhibition reporter assay (HEK-Blue, SEAP). The note with it: HEK-Blue cells overexpressing human TLR9, ODN2006 5 nM stimulation. The procedure, abridged: as §1

A value given as a limit tells only on which side of the number the result lay.

Usually IC50 stands for the concentration needed to halve the response being measured. High values mean weaker potency, low ones greater potency.

Chain of human TLR7 (Q9NYK1 27-1049): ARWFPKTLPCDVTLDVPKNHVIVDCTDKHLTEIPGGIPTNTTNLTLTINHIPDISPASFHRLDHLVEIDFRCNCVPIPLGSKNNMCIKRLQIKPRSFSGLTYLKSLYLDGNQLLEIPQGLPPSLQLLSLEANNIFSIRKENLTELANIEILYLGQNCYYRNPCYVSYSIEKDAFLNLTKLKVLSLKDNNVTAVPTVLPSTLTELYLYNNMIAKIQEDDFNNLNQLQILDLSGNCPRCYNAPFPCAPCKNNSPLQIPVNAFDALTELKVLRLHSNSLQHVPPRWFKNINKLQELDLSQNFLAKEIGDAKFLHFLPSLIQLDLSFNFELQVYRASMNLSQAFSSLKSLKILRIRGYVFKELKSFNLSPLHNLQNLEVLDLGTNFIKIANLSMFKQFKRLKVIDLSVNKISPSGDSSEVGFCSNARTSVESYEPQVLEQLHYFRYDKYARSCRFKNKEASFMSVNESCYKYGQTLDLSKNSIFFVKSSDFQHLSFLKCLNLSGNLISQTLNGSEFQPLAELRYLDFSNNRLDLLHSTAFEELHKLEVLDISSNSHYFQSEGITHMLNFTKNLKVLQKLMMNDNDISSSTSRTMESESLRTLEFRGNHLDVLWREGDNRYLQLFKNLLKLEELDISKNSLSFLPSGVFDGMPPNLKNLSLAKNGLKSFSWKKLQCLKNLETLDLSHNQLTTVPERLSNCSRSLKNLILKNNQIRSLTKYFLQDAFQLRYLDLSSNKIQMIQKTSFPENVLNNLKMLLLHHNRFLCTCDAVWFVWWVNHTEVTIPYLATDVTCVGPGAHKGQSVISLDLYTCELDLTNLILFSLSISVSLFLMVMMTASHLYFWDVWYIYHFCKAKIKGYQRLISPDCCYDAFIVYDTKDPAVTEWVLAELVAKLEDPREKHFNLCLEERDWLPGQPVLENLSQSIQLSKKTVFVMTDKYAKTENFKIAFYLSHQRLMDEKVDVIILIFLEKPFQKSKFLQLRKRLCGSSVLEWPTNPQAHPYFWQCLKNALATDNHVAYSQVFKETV
Chain of human TLR9 (Q9NR96 26-1032): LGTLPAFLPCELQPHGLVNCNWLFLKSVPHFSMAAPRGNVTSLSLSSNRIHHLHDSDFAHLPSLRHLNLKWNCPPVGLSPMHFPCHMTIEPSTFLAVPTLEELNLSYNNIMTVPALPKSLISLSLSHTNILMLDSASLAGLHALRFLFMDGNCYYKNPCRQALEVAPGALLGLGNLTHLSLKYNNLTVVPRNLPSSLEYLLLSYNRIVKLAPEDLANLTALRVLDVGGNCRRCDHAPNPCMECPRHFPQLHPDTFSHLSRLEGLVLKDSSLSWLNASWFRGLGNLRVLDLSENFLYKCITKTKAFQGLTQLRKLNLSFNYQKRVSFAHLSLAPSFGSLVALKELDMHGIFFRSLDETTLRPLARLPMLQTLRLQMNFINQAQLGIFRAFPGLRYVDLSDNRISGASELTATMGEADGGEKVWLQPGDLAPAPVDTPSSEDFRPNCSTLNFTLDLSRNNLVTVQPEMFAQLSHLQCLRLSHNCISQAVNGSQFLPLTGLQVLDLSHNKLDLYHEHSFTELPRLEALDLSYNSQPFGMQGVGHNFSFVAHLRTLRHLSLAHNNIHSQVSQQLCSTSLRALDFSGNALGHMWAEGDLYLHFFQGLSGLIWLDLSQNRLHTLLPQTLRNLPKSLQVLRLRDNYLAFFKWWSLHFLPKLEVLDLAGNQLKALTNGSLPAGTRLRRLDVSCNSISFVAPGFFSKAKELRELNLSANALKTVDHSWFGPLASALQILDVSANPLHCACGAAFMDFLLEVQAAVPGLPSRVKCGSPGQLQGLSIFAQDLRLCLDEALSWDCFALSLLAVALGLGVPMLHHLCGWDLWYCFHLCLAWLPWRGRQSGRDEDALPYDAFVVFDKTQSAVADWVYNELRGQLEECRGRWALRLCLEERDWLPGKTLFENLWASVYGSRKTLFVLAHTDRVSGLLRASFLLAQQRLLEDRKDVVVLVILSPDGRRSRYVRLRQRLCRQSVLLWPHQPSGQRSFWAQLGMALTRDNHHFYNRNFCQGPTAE
Chain of human TLR8 (Q9NR97 27-1041): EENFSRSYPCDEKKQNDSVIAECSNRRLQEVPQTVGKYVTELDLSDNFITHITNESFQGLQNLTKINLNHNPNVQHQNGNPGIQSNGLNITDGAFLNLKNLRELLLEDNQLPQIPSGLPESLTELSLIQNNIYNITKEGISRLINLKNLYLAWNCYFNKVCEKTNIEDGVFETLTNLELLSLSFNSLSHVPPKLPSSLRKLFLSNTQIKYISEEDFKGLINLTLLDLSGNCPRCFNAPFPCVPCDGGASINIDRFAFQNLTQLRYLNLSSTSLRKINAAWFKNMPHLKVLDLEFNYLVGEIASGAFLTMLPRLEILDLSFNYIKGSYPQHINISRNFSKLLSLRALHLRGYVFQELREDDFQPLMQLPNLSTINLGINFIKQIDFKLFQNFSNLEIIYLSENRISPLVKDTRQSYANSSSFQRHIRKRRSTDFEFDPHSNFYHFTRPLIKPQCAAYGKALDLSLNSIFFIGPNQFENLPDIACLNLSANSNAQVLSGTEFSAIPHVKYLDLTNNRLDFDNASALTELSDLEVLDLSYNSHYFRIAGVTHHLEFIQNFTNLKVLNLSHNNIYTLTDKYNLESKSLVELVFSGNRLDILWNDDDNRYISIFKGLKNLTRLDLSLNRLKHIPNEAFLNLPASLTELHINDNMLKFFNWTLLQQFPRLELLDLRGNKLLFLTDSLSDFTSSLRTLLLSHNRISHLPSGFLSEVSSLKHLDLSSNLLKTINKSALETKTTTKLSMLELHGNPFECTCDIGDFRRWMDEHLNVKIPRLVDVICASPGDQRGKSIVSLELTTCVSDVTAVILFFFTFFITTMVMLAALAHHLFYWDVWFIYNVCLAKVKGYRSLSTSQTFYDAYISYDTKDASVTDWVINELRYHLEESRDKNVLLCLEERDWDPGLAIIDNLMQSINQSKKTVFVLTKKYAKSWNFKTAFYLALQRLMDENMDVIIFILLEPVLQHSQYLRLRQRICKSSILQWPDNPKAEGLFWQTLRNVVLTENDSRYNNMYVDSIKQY

Consider `CC(C)c1c(-c2ccnc3[nH]ncc23)[nH]c2ccc(-c3nc(C(=O)N4CCCN(C)CC4)co3)cc12` [Example 233, (2-(3-isopropyl-2-(1H-pyrazolo[3,4-b]pyridin-4-yl)-1H-indol-5-yl)oxazol-4-yl)(4-methyl-1,4-diazepan-1-yl)methanone], for which the concentration for half-maximal inhibition (IC50) at human TLR7 amounted to 195 nM; on human TLR8, 2.5 nM; against human TLR9 it was 2080 nM.
Taken in the same sequence, the figures for `CC(C)c1c(-c2ccnc3[nH]ncc23)[nH]c2ccc(-c3nc(C(=O)NCCN(C)C)co3)cc12` [Example 234, N-(2-(dimethylamino)ethyl)-2-(3-isopropyl-2-(1H-pyrazolo[3,4-b]pyridin-4-yl)-1H-indol-5-yl)oxazole-4-carboxamide] were 229 nM, 4.5 nM and 366 nM.
In the case of `Cc1cc(-c2[nH]c3ccc(-c4ccc(Cl)nc4)cc3c2C(C)C)ccn1` [Example 235, 5-(6-chloropyridin-3-yl)-3-isopropyl-2-(2-methylpyridin-4-yl)-1H-indole], the figures for the IC50 against human TLR7, against human TLR8 and at human TLR9 were 667 nM, 301 nM and > 50000 nM, respectively.
For `Cc1cc(-c2[nH]c3ccc(-c4ccc(N)nc4)cc3c2C(C)C)cc(C)n1` [Example 236, 5-(2-(2,6-dimethylpyridin-4-yl)-3-isopropyl-1H-indol-5-yl)pyridin-2-amine], in that order: 13 nM, 2.7 nM and 655 nM.
Taken in the same sequence, the figures for `Cc1cc(-c2[nH]c3ccc(-c4ccc(N)nc4)cc3c2C(C)C)ccn1` [Example 237, 5-(3-isopropyl-2-(2-methylpyridin-4-yl)-1H-indol-5-yl)pyridin-2-amine] were 30 nM, 2 nM and 9730 nM.
With `Cc1cc(-c2[nH]c3ccc(-c4ccc(NC(=O)CN(C)C)nc4)cc3c2C(C)C)cc(C)n1` [Example 238, 2-(dimethylamino)-N-(5-(2-(2,6-dimethylpyridin-4-yl)-3-isopropyl-1H-indol-5-yl)pyridin-2-yl)acetamide], the values for the IC50 against human TLR7, at human TLR8 and against human TLR9 were 9.7 nM, 2.7 nM and 451 nM, respectively.
Taken in the same sequence, the figures for `CNCCNc1ccc(-c2ccc3[nH]c(-c4cc(C)nc(C)c4)c(C(C)C)c3c2)cn1` [Example 239, N1-(5-(2-(2,6-dimethylpyridin-4-yl)-3-isopropyl-1H-indol-5-yl)pyridin-2-yl)-N2-methylethane-1,2-diamine] were 4.8 nM, 2.2 nM and 589 nM.
Taken in the same sequence, the figures for `Cc1cc(-c2[nH]c3ccc(-c4nnc(C(=O)N5CCC(NC(C)C)CC5)o4)cc3c2C(C)C)cc(C)n1` [Example 240, (5-(2-(2,6-dimethylpyridin-4-yl)-3-isopropyl-1H-indol-5-yl)-1,3,4-oxadiazol-2-yl)(4-(isopropylamino)piperidin-1-yl)methanone] were 39 nM, 7.5 nM and 367 nM.
Turning to `CC(C)c1c(-c2ccc3nccn3c2)[nH]c2ccc(-c3nnc(C(=O)NC4CCN(C(C)C)CC4)o3)cc12` [Example 241, 5-(2-(imidazo[1,2-a]pyridin-6-yl)-3-isopropyl-1H-indol-5-yl)-N-(1-isopropylpiperidin-4-yl)-1,3,4-oxadiazole-2-carboxamide], the IC50 was 43 nM on human TLR7, 43 nM against human TLR8 and 306 nM against human TLR9.
As for `CC(C)c1c(-c2ccc3nccn3c2)[nH]c2ccc(-c3nnc(C(=O)NCCN(C)C)o3)cc12` [Example 242, N-(2-(dimethylamino)ethyl)-5-(2-(imidazo[1,2-a]pyridin-6-yl)-3-isopropyl-1H-indol-5-yl)-1,3,4-oxadiazole-2-carboxamide], the values for the half-maximal inhibitory concentration (IC50) against human TLR7, at human TLR8 and at human TLR9 were 22 nM, 30 nM and 306 nM, respectively.
With `FC(F)Cc1c(-c2ccnc3[nH]ncc23)[nH]c2ccc(-c3nnc([C@@H]4CCCNC4)o3)cc12` [Example 243, (R)-2-(3-(2,2-difluoroethyl)-2-(1H-pyrazolo[3,4-b]pyridin-4-yl)-1H-indol-5-yl)-5-(piperidin-3-yl)-1,3,4-oxadiazole], the figures for the concentration for half-maximal inhibition (IC50) at human TLR7, on human TLR8 and on human TLR9 were 2280 nM, 1300 nM and 3260 nM, respectively.
For `Cc1cc(-c2[nH]c3ccc(-c4nnc([C@@H]5CCCN(C(C)C)C5)o4)cc3c2C(C)C)cc(C)n1` [Example 245, (R)-2-(2-(2,6-dimethylpyridin-4-yl)-3-isopropyl-1H-indol-5-yl)-5-(1-isopropylpiperidin-3-yl)-1,3,4-oxadiazole], in that order: 5.4 nM, 1.5 nM and 304 nM.
For `Cc1cc(-c2[nH]c3ccc(-c4ccc(N(C)C)nc4)cc3c2C(C)C)ccn1` [Example 246, 5-(3-isopropyl-2-(2-methylpyridin-4-yl)-1H-indol-5-yl)-N,N-dimethylpyridin-2-amine], in that order: 56 nM, 21 nM and > 50000 nM.
For `Cc1cc(-c2[nH]c3ccc(-c4ccc(NC(C)C)nc4)cc3c2C(C)C)ccn1` [Example 247, N-isopropyl-5-(3-isopropyl-2-(2-methylpyridin-4-yl)-1H-indol-5-yl)pyridin-2-amine], the values for the 50% inhibitory concentration (IC50) against human TLR7, on human TLR8 and on human TLR9 were 84 nM, 6.4 nM and 5540 nM, respectively.
For `Cc1cc(-c2[nH]c3ccc(-c4ccc(NC(C)C)nc4)cc3c2C(C)C)cc(C)n1` [Example 248, 5-(2-(2,6-dimethylpyridin-4-yl)-3-isopropyl-1H-indol-5-yl)-N-isopropylpyridin-2-amine], in that order: 20 nM, 2.6 nM and 4070 nM.
Taken in the same sequence, the figures for `Cc1cc(-c2[nH]c3ccc(-c4nnc(C5CN6CCC5CC6)o4)cc3c2C(C)C)cc(C)n1` (stereo not drawn) [Example 250, 2-(2-(2,6-dimethylpyridin-4-yl)-3-isopropyl-1H-indol-5-yl)-5-(quinuclidin-3-yl)-1,3,4-oxadiazole] were 3.4 nM, 2.1 nM and 113 nM.
For `Cc1cc(-c2[nH]c3ccc(-c4cc5c(s4)CN(C)CC5)cc3c2C(C)C)ccn1` [Example 251, 2-(3-isopropyl-2-(2-methylpyridin-4-yl)-1H-indol-5-yl)-6-methyl-4,5,6,7-tetrahydrothieno[2,3-c]pyridine], in that order: 35 nM, 1.4 nM and 484 nM.
Regarding `CNCC(=O)N1CCc2cc(-c3ccc4[nH]c(-c5ccnc(C)c5)c(C(C)C)c4c3)sc2C1` [Example 252, 1-(2-(3-isopropyl-2-(2-methylpyridin-4-yl)-1H-indol-5-yl)-4,7-dihydrothieno[2,3-c]pyridin-6(5H)-yl)-2-(methylamino)ethan-1-one], the values for the IC50 against human TLR7, against human TLR8 and at human TLR9 were 22 nM, 12 nM and 788 nM, respectively.
Taken in the same sequence, the figures for `Cc1cc(-c2[nH]c3ccc(-c4ccc(N5CCN(C)CC5)nc4)cc3c2C(C)C)ccn1` [Example 253, 3-isopropyl-5-(6-(4-methylpiperazin-1-yl)pyridin-3-yl)-2-(2-methylpyridin-4-yl)-1H-indole] were 45 nM, 22 nM and 304 nM.
For `Cc1cc(-c2[nH]c3ccc(-c4cnc(C5CCNCC5)[nH]4)cc3c2C(C)C)ccn1` [Example 254, 3-isopropyl-2-(2-methylpyridin-4-yl)-5-(2-(piperidin-4-yl)-1H-imidazol-5-yl)-1H-indole], the IC50 against human TLR7 turned out to be 88 nM; against human TLR8 it was 77 nM; on human TLR9 it was 1210 nM.
Taken in the same sequence, the figures for `Cc1cc(-c2[nH]c3ccc(-c4ccc(N5CCNCC5)nc4)cc3c2C(C)C)ccn1` [Example 255, 3-isopropyl-2-(2-methylpyridin-4-yl)-5-(6-(piperazin-1-yl)pyridin-3-yl)-1H-indole] were 12 nM, 2.9 nM and 340 nM.
With `CC(=O)Nc1ccc(-c2ccc3[nH]c(-c4ccnc(C)c4)c(C(C)C)c3c2)cn1` [Example 256, N-(5-(3-isopropyl-2-(2-methylpyridin-4-yl)-1H-indol-5-yl)pyridin-2-yl)acetamide], the values for the half-inhibitory concentration (IC50) against human TLR7, at human TLR8 and against human TLR9 were 99 nM, 15 nM and > 50000 nM, respectively.
In the case of `Cc1cc(-c2[nH]c3ccc(-c4ccc(N5CCNCC5)nc4)cc3c2C(C)C)cc(C)n1` [Example 257, 2-(2,6-dimethylpyridin-4-yl)-3-isopropyl-5-(6-(piperazin-1-yl)pyridin-3-yl)-1H-indole], the results for the IC50 against human TLR7, against human TLR8 and against human TLR9 were 1.7 nM, 1.7 nM and 151 nM, respectively.
With `Cc1cc(-c2[nH]c3ccc(-c4ccnc(-c5cn[nH]c5)c4)cc3c2C(C)C)ccn1` [Example 258, 5-(2-(1H-pyrazol-4-yl)pyridin-4-yl)-3-isopropyl-2-(2-methylpyridin-4-yl)-1H-indole], the IC50 against human TLR7 stood at 224 nM; against human TLR8, 4 nM; at human TLR9, 12000 nM.
For `Cc1cc(-c2[nH]c3ccc(-c4nnc(CC(C)N)o4)cc3c2C(C)C)ccn1` (stereo not drawn) [Example 259, 1-(5-(3-isopropyl-2-(2-methylpyridin-4-yl)-1H-indol-5-yl)-1,3,4-oxadiazol-2-yl)propan-2-amine], in that order: 26 nM, 5.5 nM and 876 nM.
Turning to `Cc1cc(-c2[nH]c3ccc(-c4nnc(CCN5CCCCC5)o4)cc3c2C(C)C)ccn1` [Example 260, 2-(3-isopropyl-2-(2-methylpyridin-4-yl)-1H-indol-5-yl)-5-(2-(piperidin-1-yl)ethyl)-1,3,4-oxadiazole], the IC50 was found to be 133 nM against human TLR7, 2.2 nM against human TLR8 and 1230 nM at human TLR9.
